Data as given in patent US10590132B2, “Selective estrogen receptor down-regulators” (AstraZeneca AB, priority 2017, dated 2020).

Experiment: Human plasma protein binding (equilibrium dialysis)
Assay type: in vitro ADME
Conditions: dialysis 18 hours
Protocol: The automated equilibrium dialysis assay in human plasma uses the RED (Rapid Equilibrium Dialysis) Device and sample handling. The assay generally runs over two to three days including delivery of results. After dialysis for 18 hours, plasma and buffer samples are prepared for analysis by liquid chromatography and mass spectrometry. Samples are generally tested in singlicates and quantified by LC/MSMS by using a 7-point calibration curve in plasma. The compounds are pooled together in plasma pools up to 10 compounds. Three reference compounds are used in each run, Propranolol, Metoprolol and Warfarin. Warfarin is used as a control in each pool and Propranolol and Metoprolol are placed randomly in each run. An in-house Excel macro is used for preparation of files for the robot and the mass spectrometer and is also used for the calculations of fraction unbound (fu %) in plasma.

Row | Structure (SMILES) | Human plasma protein binding (% free)
1 | COc1ccc(OCCNCCC(F)(F)F)cc1[C@@H]1c2[nH]c3ccccc3c2C[C@@H](C)N1CC(F)(F)F [Example 72, 3,3,3-trifluoro-N-(2-(4-methoxy-3-((1R,3R)-3-methyl-2-(2,2,2-trifluoroethyl)-2,3,4,9-tetrahydro-1H-pyrido[3,4-b]indol-1-yl)phenoxy)ethyl)propan-1-amine] | <0.1
2 | C[C@@H]1Cc2c([nH]c3ccccc23)[C@@H](c2cccc(OCCNCCCF)c2C(F)F)N1CC(F)(F)CO [Example 68, 3-((1R,3R)-1-(2-(difluoromethyl)-3-(2-((3-fluoropropyl)amino)ethoxy)phenyl)-3-methyl-1,3,4,9-tetrahydro-2H-pyrido[3,4-b]indol-2-yl)-2,2-difluoropropan-1-ol] | 1.2
3 | Cc1c(N(C)CCN(C)CCCF)ccc(F)c1[C@@H]1c2[nH]c3ccccc3c2C[C@@H](C)N1C[C@H](C)C(=O)O [Example 147, (S)-3-((1R,3R)-1-(6-fluoro-3-((2-((3-fluoropropyl)(methyl)amino)ethyl)(methyl)amino)-2-methylphenyl)-3-methyl-1,3,4,9-tetrahydro-2H-pyrido[3,4-b]indol-2-yl)-2-methylpropanoic acid] | 19
4 | COc1nnc(OCCNCCCF)cc1[C@@H]1c2[nH]c3ccccc3c2C[C@@H](C)N1CC(F)(F)F [Example 112, 3-fluoro-N-(2-((6-methoxy-5-((1R,3R)-3-methyl-2-(2,2,2-trifluoroethyl)-2,3,4,9-tetrahydro-1H-pyrido[3,4-b]indol-1-yl)pyridazin-3-yl)oxy)ethyl)propan-1-amine] | 1.5
5 | C[C@@H]1Cc2c([nH]c3ccccc23)[C@@H](c2nccc(NCCNCCCF)c2F)N1CC(F)(F)F [Example 94, N1-(3-fluoro-2-((1S,3R)-3-methyl-2-(2,2,2-trifluoroethyl)-2,3,4,9-tetrahydro-1H-pyrido[3,4-b]indol-1-yl)pyridin-4-yl)-N2-(3-fluoropropyl)ethane-1,2-diamine] | 7
6 | C[C@@H]1Cc2c([nH]c3ccccc23)[C@@H](c2c(Cl)ccc(OCCNCCCF)c2F)N1C[C@H](C)C(=O)O [Example 54, (S)-3-((1R,3R)-1-(6-chloro-2-fluoro-3-(2-((3-fluoropropyl)amino)ethoxy)phenyl)-3-methyl-1,3,4,9-tetrahydro-2H-pyrido[3,4-b]indol-2-yl)-2-methylpropanoic acid] | 18
7 | Cc1c(OCCNCCCF)ncnc1[C@@H]1c2[nH]c3ccccc3c2C[C@@H](C)N1CC(F)(F)F [Example 114, 3-fluoro-N-(2-((5-methyl-6-((1S,3R)-3-methyl-2-(2,2,2-trifluoroethyl)-2,3,4,9-tetrahydro-1H-pyrido[3,4-b]indol-1-yl)pyrimidin-4-yl)oxy)ethyl)propan-1-amine] | 1.7
8 | COc1ncc(OCCNCCCF)cc1[C@@H]1c2[nH]c3ccccc3c2C[C@@H](C)N1CC(F)(F)F [Example 36, 3-fluoro-N-(2-((6-methoxy-5-((1R,3R)-3-methyl-2-(2,2,2-trifluoroethyl)-2,3,4,9-tetrahydro-1H-pyrido[3,4-b]indol-1-yl)pyridin-3-yl)oxy)ethyl)propan-1-amine] | 2
9 | COc1ccc(OCCNCCCF)cc1[C@@H]1c2[nH]c3ccc(F)cc3c2C[C@@H](C)N1CC(F)(F)CO [Example 46, 2,2-difluoro-3-((1R,3R)-6-fluoro-1-(5-(2-((3-fluoropropyl)amino)ethoxy)-2-methoxyphenyl)-3-methyl-1,3,4,9-tetrahydro-2H-pyrido[3,4-b]indol-2-yl)propan-1-ol] | 2.4
10 | C[C@@H]1Cc2c([nH]c3ccc(F)cc23)[C@@H](c2c(F)cnc(OCCN(C)CCCF)c2F)N1CC(F)(F)CO [Example 67, 3-((1R,3R)-1-(3,5-difluoro-2-(2-((3-fluoropropyl)(methyl)amino)ethoxy)pyridin-4-yl)-6-fluoro-3-methyl-1,3,4,9-tetrahydro-2H-pyrido[3,4-b]indol-2-yl)-2,2-difluoropropan-1-ol] | 1.6
